Test results reported in ChEMBL document CHEMBL6092180 (Eur J Med Chem, 2024).
Values after ≈ are worked out from the molar mass of the structure shown. Active and inactive are the calls of the source. The rule behind the calls is not given here.

Key:
Candida albicans [1] = assay: Antifungal activity against fluconazole and iodiconazole resistant Candida albicans clinical isolate 17# assessed as inhibition of fungal growth by CLSI M27-A3 guidelines based method; assay type: functional
[2] = Cytotoxicity against human NCI-H460 cells assessed as inhibition of cell growth incubated for 72 hrs by MTT assay; assay type: toxicity, cell-based
Pichia kudriavzevii = assay: Antifungal activity against Candida krusei GIM 2.1 assessed as inhibition of fungal growth by CLSI M27-A3 guidelines based method; assay type: functional
Candida albicans [3] = assay: Antifungal activity against fluconazole-resistant Candida albicans clinical isolate 103 assessed as inhibition of fungal growth by CLSI M27-A3 guidelines based method; assay type: functional
Candida albicans [4] = assay: Fungicidal activity against fluconazole and iodiconazole resistant Candida albicans clinical isolate 17# incubated for 48 hrs by PDA plate based method; assay type: functional
Candida albicans [5] = assay: Antifungal activity against fluconazole-resistant Candida albicans clinical isolate 311 assessed as inhibition of fungal growth by CLSI M27-A3 guidelines based method; assay type: functional
Candida albicans [6] = assay: Effect on sterol composition in Candida albicans SC5314 assessed as ergosterol content at 4 microg/ml measured after 16 hrs by GC-MS analysis (reference value: 96.96 %); assay type: functional; details: dose 4 µg/ml
Candida albicans [7] = assay: Antifungal activity against Candida albicans GIM 2.194 assessed as inhibition of fungal growth by CLSI M27-A3 guidelines based method; assay type: functional
Candida albicans [8] = assay: Effect on sterol composition in Candida albicans SC5314 assessed as obtusifoliol content at 4 microg/ml measured after 16 hrs by GC-MS analysis relative to control; assay type: functional; details: dose 4 µg/ml
Candida albicans [9] = assay: Effect on sterol composition in Candida albicans SC5314 assessed as eburicol content at 4 microg/ml measured after 16 hrs by GC-MS analysis relative to control; assay type: functional; details: dose 4 µg/ml
Candida albicans [10] = assay: Antibiofilm activity against fluconazole-resistant Candida albicans CPCC400616 assessed as inhibition of metabolic activity of biofilm measured after 24 hrs by XTT reduction assay; assay type: functional
Nakaseomyces glabratus = assay: Antifungal activity against Candida glabrata assessed as inhibition of fungal growth by CLSI M27-A3 guidelines based method; assay type: functional
Candida albicans [11] = assay: Fungicidal activity fluconazole and iodiconazole resistant Candida albicans clinical isolate 17# assessed as decrease in number of fungi at 16 microg/ml measured within 24 hrs by time-kill kinetics assay; assay type: functional, organism-based; details: dose 16.0 µg/ml
Candida tropicalis = assay: Antifungal activity against Candida tropicalis GIM 2.183 assessed as inhibition of fungal growth by CLSI M27-A3 guidelines based method; assay type: functional
Candida albicans [12] = assay: Effect on sterol composition in Candida albicans SC5314 assessed as other sterols content at 4 microg/ml measured after 16 hrs by GC-MS analysis (reference value: 1.06 %); assay type: functional; details: dose 4 µg/ml
[13] = Cytotoxicity against HEK293T cells assessed as inhibition of cell growth incubated for 72 hrs by MTT assay; assay type: toxicity, cell-based, HEK-293T; details: human
[14] = Cytotoxicity against human OVCAR-3 cells assessed as inhibition of cell growth incubated for 72 hrs by MTT assay; assay type: toxicity, cell-based
Cryptococcus neoformans = assay: Antifungal activity against Cryptococcus neoformans CGMCC 2.3161 assessed as inhibition of fungal growth by CLSI M27-A3 guidelines based method; assay type: functional
Aspergillus fumigatus = assay: Antifungal activity against Aspergillus fumigatus cgmcc 3.7795 assessed as inhibition of fungal growth by CLSI M27-A3 guidelines based method; assay type: functional
Candida albicans [15] = assay: Antifungal activity against fluconazole-resistant Candida albicans CaR assessed as inhibition of fungal growth by CLSI M27-A3 guidelines based method; assay type: functional
Candida albicans [16] = assay: Inhibition of hyphal formation in fluconazole-resistant Candida albicans CPCC400616 assessed as reduction in invasive ability at 2 microg/ml measured after 4 hrs by inverted microscopic analysis; assay type: functional, organism-based; details: dose 2.0 µg/ml
Candida albicans [17] = assay: Antifungal activity against Candida albicans SC5314 assessed as inhibition of fungal growth by CLSI M27-A3 guidelines based method; assay type: functional
Candida albicans [18] = assay: Antifungal activity against fluconazole-resistant Candida albicans clinical isolate 632 assessed as inhibition of fungal growth by CLSI M27-A3 guidelines based method; assay type: functional
Candida albicans [19] = assay: Effect on sterol composition in Candida albicans SC5314 assessed as 14alpha-demethyllanosterol content at 4 microg/ml measured after 16 hrs by GC-MS analysis (reference value: 1.98 %); assay type: functional; details: dose 4 µg/ml
[20] = Cytotoxicity against HUVEC cells assessed as inhibition of cell growth incubated for 72 hrs by MTT assay; assay type: toxicity, cell-based; details: human
Candida parapsilosis = assay: Antifungal activity against Candida parapsilosis GIM 2.190 assessed as inhibition of fungal growth by CLSI M27-A3 guidelines based method; assay type: functional; details: Lodderomyces parapsilosis
Candida albicans [21] = assay: Antifungal activity against fluconazole-resistant Candida albicans clinical isolate 904 assessed as inhibition of fungal growth by CLSI M27-A3 guidelines based method; assay type: functional
Candida albicans [22] = assay: Antifungal activity against fluconazole-resistant Candida albicans clinical isolate 100 assessed as inhibition of fungal growth by CLSI M27-A3 guidelines based method; assay type: functional
Candida albicans [23] = assay: Effect on sterol composition in Candida albicans SC5314 assessed as lanosterol content at 4 microg/ml measured after 16 hrs by GC-MS analysis relative to control; assay type: functional; details: dose 4 µg/ml
Candida albicans [24] = assay: Fungicidal activity against Candida albicans SC5314 incubated for 48 hrs by PDA plate based method; assay type: functional
Candida albicans [25] = assay: Antifungal activity against fluconazole-resistant Candida albicans clinical isolate 901 assessed as inhibition of fungal growth by CLSI M27-A3 guidelines based method; assay type: functional
Candida albicans [26] = assay: Antibiofilm activity against fluconazole-resistant Candida albicans CPCC400616 assessed as inhibition of metabolic activity of biofilm measured after 6 hrs by XTT reduction assay; assay type: functional

`OC(Cn1cncn1)(Cn1cncn1)c1ccc(F)cc1F` [FLUCONAZOLE] showed an MIC80 (Candida albicans [1]) greater than 64 µg/mL, an IC50 at 72 h [2] greater than 40 µM and an MIC80 (Pichia kudriavzevii) of 8 µg/mL (≈ 26.1 µM). It also gave an MIC80 (Candida albicans [3]) greater than 64 µg/mL, an MFC (Candida albicans [4]) greater than 64 µg/mL and an MIC80 (Candida albicans [5]) greater than 64 µg/mL. It also gave an Activity (Candida albicans [6]) of 4.57%, an MIC80 (Candida albicans [7]) of 0.5 µg/mL (≈ 1.63 µM) and an Activity (Candida albicans [8]) of 14.37%. The Activity (Candida albicans [9]) was 60.09%, the MIC50 (Candida albicans [10]) was greater than 32 µg/mL and the MIC80 (Nakaseomyces glabratus) was 8 µg/mL (≈ 26.1 µM). For the same compound, the Activity (Candida albicans [11]) was “inactive”, the MIC80 (Candida tropicalis) was 0.25 µg/mL (≈ 0.816 µM) and the Activity (Candida albicans [12]) was 8.64%. It also gave an IC50 at 72 h [13] greater than 40 µM, an IC50 at 72 h [14] greater than 40 µM and an MIC80 (Cryptococcus neoformans) of 4 µg/mL (≈ 13.1 µM). The MIC80 (Aspergillus fumigatus) was 64 µg/mL (≈ 209 µM), the MIC80 (Candida albicans [15]) was greater than 64 µg/mL and the inhibition (Candida albicans [16]) was “inactive”. The MIC80 (Candida albicans [17]) was 0.25 µg/mL (≈ 0.816 µM), the MIC80 (Candida albicans [18]) was greater than 64 µg/mL and the Activity (Candida albicans [19]) was 3.03%. For the same compound, the IC50 at 72 h [20] was greater than 40 µM, the MIC80 (Candida parapsilosis) was 1 µg/mL (≈ 3.27 µM) and the MIC80 (Candida albicans [21]) was greater than 64 µg/mL. It also gave an MIC80 (Candida albicans [22]) greater than 64 µg/mL, an Activity (Candida albicans [23]) of 9.3% and an MFC (Candida albicans [24]) greater than 64 µg/mL. It also gave an MIC80 (Candida albicans [25]) greater than 64 µg/mL and an MIC50 (Candida albicans [26]) of 16 µg/mL (≈ 52.2 µM).
